# According to patent US20120245137A1 (Zalicus Pharmaceuticals Ltd., priority 2009, published 2012):
# Read-outs that look alike come from different tables or passages of the source.
# Columns and labels:
# Type in all cases: cell-based
# [1] = target: CAv1.2 (Homo sapiens, UniProt Q13936); assay: FLIPR data, CAv1.2 channel blocking (Table 6); conditions: for CAv1.2 IC50 Ratio closed/inact.: ratio closed/inactivated IC50
# [2] = target: Human Cav 2.2 channels (Homo sapiens, UniProt Q00975); assay: Fluorescent assay for CaV2.2 channels using potassium depolarization (VIPR/FLIPR); conditions: FLIPR data; for CAv2.2 IC50 Ratio closed/inact.: ratio closed/inactivated IC50
# Method in brief: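 Fluo-4 calcium fluorescence (480/535 nm) was recorded on VIPR or FLIPR after depolarization to 70 mM final potassium. Before this, cells were preincubated 30 min at 25 °C with compound in 4–30 mM potassium, so that state-dependent block could be assessed; the cells were HEK293 coexpressing Cav2.2, α2δ, β and Kir2.3.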
# [3] = target: T-type calcium channel (Homo sapiens, UniProt O95180); assay: T-type channel blocking, FLIPR data (Table 6); conditions: for CAv3.2 IC50 Ratio closed/inact.: CAv3.2, ratio closed/inactivated IC50
# Text: (§1) Another method, high-throughput spectrophotometric assay, utilizes loading of the cell lines with a fluorescent dye sensitive to intracellular calcium concentration and subsequent examination of the effects of compounds on the ability of depolarization by potassium chloride or other means to alter intracellular calcium levels.
# [4] = target: T-type calcium channel (Homo sapiens, UniProt O43497); assay: T-type channel blocking, FLIPR data (Table 6); conditions: CAv3.1
# Text: as §1
# [5] = closed state, read-out: CAv1.2 IC50 Closed
# [6] = inactivated state, read-out: CAv1.2 IC50 Inact.
# [7] = closed state, read-out: CAv2.2 IC50 Closed
# [8] = inactivated state, read-out: CAv2.2 IC50 Inact.
# [9] = CAv3.2, closed state, read-out: CAv3.2 IC50 Closed
# [10] = CAv3.2, inactivated state, read-out: CAv3.2 IC50 Inact.
# Sequence of T-type calcium channel (Homo sapiens, UniProt O43497) (O43497 whole entry): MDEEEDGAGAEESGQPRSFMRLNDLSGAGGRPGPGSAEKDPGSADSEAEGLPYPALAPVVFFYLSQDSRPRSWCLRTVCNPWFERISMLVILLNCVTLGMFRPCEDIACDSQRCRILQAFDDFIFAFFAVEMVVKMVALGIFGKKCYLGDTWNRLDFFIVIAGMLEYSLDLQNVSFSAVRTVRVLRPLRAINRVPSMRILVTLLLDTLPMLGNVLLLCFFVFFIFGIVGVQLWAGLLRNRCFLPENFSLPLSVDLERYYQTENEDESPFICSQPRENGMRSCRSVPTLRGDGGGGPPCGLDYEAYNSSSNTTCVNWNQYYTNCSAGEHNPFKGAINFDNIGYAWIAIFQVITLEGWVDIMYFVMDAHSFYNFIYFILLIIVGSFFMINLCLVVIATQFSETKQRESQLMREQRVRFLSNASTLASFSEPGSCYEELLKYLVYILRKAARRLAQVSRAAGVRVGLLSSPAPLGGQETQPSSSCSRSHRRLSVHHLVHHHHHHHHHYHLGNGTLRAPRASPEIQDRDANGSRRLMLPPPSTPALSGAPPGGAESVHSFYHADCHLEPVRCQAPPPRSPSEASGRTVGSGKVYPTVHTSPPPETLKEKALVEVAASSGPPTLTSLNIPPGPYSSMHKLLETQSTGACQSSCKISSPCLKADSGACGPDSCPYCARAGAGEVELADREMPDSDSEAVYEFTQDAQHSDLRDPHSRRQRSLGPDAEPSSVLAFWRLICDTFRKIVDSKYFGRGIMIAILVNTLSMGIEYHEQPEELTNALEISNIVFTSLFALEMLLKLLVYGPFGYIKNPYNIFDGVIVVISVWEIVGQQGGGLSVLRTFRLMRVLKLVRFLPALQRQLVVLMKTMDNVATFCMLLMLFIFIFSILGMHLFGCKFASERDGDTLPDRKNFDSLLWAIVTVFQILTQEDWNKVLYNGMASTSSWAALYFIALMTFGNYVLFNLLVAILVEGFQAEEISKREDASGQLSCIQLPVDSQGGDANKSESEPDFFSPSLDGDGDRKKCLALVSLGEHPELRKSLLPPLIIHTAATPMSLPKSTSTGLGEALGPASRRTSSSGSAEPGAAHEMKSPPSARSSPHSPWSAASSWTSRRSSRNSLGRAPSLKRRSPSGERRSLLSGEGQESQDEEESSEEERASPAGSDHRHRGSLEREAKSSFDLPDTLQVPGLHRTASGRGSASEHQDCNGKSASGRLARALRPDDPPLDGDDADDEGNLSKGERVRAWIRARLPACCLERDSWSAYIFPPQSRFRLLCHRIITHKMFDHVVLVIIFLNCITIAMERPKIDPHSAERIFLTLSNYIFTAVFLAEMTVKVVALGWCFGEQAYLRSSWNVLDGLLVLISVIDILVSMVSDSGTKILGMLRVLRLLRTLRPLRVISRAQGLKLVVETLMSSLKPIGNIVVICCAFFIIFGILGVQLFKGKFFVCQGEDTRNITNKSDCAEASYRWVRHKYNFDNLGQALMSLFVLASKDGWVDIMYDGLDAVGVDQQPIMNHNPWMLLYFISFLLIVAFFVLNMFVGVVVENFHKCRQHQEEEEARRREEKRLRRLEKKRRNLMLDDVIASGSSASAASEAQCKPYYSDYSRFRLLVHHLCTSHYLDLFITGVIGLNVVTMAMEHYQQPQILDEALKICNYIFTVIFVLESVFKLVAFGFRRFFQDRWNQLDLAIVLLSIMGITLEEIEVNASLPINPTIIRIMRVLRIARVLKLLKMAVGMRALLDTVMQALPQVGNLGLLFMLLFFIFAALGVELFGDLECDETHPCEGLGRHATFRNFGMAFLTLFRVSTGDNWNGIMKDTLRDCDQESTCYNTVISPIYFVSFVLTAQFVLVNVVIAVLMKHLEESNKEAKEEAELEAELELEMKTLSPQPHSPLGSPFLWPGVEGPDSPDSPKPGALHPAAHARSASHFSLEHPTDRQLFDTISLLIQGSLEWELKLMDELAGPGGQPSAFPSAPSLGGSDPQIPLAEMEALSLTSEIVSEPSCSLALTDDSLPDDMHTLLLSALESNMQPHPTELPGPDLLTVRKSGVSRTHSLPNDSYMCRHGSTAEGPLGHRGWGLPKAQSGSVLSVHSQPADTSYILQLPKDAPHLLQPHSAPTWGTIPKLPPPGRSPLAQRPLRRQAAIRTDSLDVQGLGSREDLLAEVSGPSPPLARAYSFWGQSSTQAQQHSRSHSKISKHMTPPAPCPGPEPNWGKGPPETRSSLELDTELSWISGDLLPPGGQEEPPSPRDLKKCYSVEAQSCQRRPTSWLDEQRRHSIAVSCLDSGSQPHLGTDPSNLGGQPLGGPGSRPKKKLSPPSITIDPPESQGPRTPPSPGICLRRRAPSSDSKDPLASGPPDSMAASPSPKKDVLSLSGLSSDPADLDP
# Sequence of T-type calcium channel (Homo sapiens, UniProt O95180) (O95180 whole entry): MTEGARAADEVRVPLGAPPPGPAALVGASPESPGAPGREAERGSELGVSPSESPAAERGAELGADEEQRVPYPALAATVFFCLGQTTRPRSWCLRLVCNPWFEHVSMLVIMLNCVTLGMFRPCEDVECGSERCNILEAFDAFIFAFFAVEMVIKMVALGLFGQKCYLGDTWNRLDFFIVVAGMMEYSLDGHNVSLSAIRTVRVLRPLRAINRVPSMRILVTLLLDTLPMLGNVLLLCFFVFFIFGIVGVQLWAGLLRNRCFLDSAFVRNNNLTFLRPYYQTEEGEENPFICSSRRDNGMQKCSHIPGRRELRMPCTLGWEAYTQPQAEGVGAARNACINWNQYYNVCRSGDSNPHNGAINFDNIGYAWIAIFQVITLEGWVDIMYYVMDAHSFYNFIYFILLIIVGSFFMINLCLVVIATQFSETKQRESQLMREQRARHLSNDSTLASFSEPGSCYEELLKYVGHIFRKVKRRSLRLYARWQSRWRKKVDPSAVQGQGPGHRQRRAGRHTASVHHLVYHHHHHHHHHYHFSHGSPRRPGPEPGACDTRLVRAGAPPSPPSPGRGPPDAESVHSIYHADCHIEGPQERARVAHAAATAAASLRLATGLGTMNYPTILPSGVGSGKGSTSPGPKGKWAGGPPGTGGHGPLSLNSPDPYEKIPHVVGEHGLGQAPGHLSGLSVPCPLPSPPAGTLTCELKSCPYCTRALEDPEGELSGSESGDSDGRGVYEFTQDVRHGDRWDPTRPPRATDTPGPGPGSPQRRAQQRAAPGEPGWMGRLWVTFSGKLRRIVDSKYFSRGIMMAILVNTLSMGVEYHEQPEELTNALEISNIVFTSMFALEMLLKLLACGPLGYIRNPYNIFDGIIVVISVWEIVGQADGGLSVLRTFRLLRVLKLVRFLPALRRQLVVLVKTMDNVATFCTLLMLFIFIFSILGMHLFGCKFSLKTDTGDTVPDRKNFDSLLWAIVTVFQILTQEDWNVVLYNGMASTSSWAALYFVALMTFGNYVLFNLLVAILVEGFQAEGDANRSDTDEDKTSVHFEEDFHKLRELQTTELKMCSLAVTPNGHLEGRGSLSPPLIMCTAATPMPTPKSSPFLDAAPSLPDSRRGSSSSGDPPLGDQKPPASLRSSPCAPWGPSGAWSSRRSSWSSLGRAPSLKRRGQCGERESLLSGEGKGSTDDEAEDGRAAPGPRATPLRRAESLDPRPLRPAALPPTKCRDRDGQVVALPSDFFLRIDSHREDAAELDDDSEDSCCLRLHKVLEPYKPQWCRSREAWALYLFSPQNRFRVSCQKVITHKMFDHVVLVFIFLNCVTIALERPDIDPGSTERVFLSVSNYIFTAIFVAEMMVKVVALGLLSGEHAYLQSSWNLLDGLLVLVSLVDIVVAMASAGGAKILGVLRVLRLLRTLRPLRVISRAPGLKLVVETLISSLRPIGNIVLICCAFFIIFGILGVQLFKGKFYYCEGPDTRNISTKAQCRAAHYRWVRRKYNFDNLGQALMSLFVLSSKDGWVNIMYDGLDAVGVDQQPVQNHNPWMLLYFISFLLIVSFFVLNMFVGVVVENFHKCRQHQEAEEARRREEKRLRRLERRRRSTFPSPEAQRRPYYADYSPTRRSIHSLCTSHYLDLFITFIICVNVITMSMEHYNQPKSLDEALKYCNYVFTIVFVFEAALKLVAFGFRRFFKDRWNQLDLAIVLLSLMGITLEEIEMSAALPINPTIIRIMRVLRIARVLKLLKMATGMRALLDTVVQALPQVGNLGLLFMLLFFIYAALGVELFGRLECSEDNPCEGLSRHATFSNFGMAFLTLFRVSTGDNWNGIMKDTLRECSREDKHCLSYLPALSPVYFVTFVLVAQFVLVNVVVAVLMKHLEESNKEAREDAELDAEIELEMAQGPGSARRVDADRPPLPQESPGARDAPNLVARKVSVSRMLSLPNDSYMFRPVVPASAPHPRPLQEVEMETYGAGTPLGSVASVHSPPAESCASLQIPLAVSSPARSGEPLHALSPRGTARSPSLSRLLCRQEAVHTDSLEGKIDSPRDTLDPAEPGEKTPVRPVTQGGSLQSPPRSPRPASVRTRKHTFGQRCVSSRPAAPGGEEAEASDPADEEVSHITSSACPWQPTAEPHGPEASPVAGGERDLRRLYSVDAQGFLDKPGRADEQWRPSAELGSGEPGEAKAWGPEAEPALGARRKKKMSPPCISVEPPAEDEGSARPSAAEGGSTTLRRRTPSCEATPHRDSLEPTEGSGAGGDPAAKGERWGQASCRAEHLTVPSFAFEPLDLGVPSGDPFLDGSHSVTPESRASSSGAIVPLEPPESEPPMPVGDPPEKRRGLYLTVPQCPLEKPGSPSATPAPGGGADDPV
Structure (SMILES),"IC50 [2, 7] [µM]","IC50 [2, 8] [µM]",CAv2.2 IC50 Ratio closed/inact. [2],"IC50 [3, 9] [µM]","IC50 [3, 10] [µM]",CAv3.2 IC50 Ratio closed/inact. [3],IC50 [4] [µM],"IC50 [1, 5] [µM]","IC50 [1, 6] [µM]",CAv1.2 IC50 Ratio closed/inact. [1]
CC(C)(C1CC(CNC(=O)c2ccc(OCC(F)(F)F)nc2)C1)S(=O)(=O)c1cccc(C(F)(F)F)c1 (centres unmarked) [Compound 619],1.66,0.26,6.4,3.29,1.27,2.6,5.12,4.42,1.36,3.3
CC(C)([C@H]1C[C@H](NC(=O)c2cc(C(F)(F)F)n[nH]2)C1)S(=O)(=O)c1cccc(OC(F)(F)F)c1 [Compound 632],5.69,0.46,12.4,0.57,1.52,0.4,9.41,≥ 10,3.3,3
CC(C)([C@H]1C[C@@H](NS(=O)(=O)c2ccc(C(F)(F)F)nc2)C1)S(=O)(=O)c1cccc(C(F)(F)F)c1 [Compound 629],7.45,0.43,17.3,3.41,3.38,1,2.97,≥ 10,4.66,2.1
CC(C)([C@H]1C[C@H](NC(=O)c2ccc(Cl)c(F)c2)C1)S(=O)(=O)c1cc(F)cc(C(F)(F)F)c1 [Compound 596],1.73,0.26,6.7,3.13,1.11,2.8,9.74,3.63,1.43,2.5
CC(C)([C@H]1C[C@@H](NC(=O)c2ccc(C(F)(F)F)cn2)C1)S(=O)(=O)c1cccc(C(F)(F)F)c1 [Compound 575],3.21,0.28,11.5,5.72,4.45,1.3,≥ 10,7.52,5.36,1.4
CC(C)([C@H]1C[C@H](NS(=O)(=O)c2ccc(F)c(Cl)c2)C1)S(=O)(=O)c1cc(F)cc(C(F)(F)F)c1 [Compound 606],2.51,0.92,2.7,8.53,3.57,2.4,4.17,5.65,2.76,2
CC(C)([C@H]1C[C@@H](NS(=O)(=O)c2ccc(C(F)(F)F)cc2)C1)S(=O)(=O)c1cccc(C(F)(F)F)c1 [Compound 624],10,0.8,12.5,2.96,2.26,1.3,2.96,≥ 10,5.54,1.8
O=C(NC[C@H]1C[C@H](S(=O)(=O)c2cccc(C(F)(F)F)c2)C1)c1ccc(C(F)(F)F)cc1 [Compound 572],3.54,0.27,13.1,2.6,1.68,1.5,8.16,7.35,3.01,2.4
CC(C)([C@H]1C[C@H](NS(=O)(=O)c2ccc(C(F)(F)F)cc2)C1)S(=O)(=O)c1cc(F)cc(C(F)(F)F)c1 [Compound 605],5.4,0.87,6.2,4.79,2.21,2.2,4.35,5.29,1.92,2.8

# Second part, led by results:
"IC50 [2, 7] [µM]","IC50 [2, 8] [µM]",CAv2.2 IC50 Ratio closed/inact. [2],"IC50 [3, 9] [µM]","IC50 [3, 10] [µM]",CAv3.2 IC50 Ratio closed/inact. [3],IC50 [4] [µM],Structure (SMILES),"IC50 [1, 5] [µM]","IC50 [1, 6] [µM]",CAv1.2 IC50 Ratio closed/inact. [1]
10,0.47,21.3,8.38,7.16,1.2,4.17,CC(C)([C@H]1C[C@@H](NC(=O)c2ccc(C(F)(F)F)cc2S(C)(=O)=O)C1)S(=O)(=O)c1cccc(OC(F)(F)F)c1 [Compound 643],≥ 10,9.25,1.1
4.71,0.15,31.4,5.68,3.67,1.5,≥ 10,CC(C)(C[C@H]1C[C@H](NC(=O)c2ccc(Cl)cc2S(C)(=O)=O)C1)S(=O)(=O)c1cccc(C(F)(F)F)c1 [Compound 718],≥ 10,≥ 10,
4.03,0.53,7.6,7.35,,,5.83,CC(C)([C@H]1C[C@@H](CNc2ccnc(C(F)(F)F)n2)C1)S(=O)(=O)c1cccc(C(F)(F)F)c1 [Compound 691],4.94,2.22,2.2
10,0.38,26.3,4.22,5.44,0.8,9.97,CC(C)([C@H]1C[C@H](NC(=O)c2ccc(C(F)(F)F)cc2S(C)(=O)=O)C1)S(=O)(=O)c1cccc(OC(F)(F)F)c1 [Compound 636],≥ 10,5.24,1.9
2.21,0.22,10,0.7,0.81,0.9,1.55,CC(C)([C@H]1C[C@H](NC(=O)c2ccc(F)c(Cl)c2)C1)S(=O)(=O)c1cccc(OC(F)(F)F)c1 [Compound 634],5.92,0.6,9.9
7.34,0.79,9.3,3.83,2.92,1.3,2.95,CC(C)([C@H]1C[C@H](NS(=O)(=O)c2ccc(C(F)(F)F)nc2)C1)S(=O)(=O)c1cccc(C(F)(F)F)c1 [Compound 668],≥ 10,3.73,2.7
7.42,0.31,23.9,5.93,4.05,1.5,5.05,CC(C)([C@H]1C[C@H](NC(=O)c2ccnc(C(F)(F)F)c2)C1)S(=O)(=O)c1cccc(C(F)(F)F)c1 [Compound 672],≥ 10,3.3,3
0.92,0.06,15.3,0.57,0.76,0.8,3.81,CC(C)(C[C@H]1C[C@@H](NC(=O)c2ccc(C(F)(F)F)cc2)C1)S(=O)(=O)c1cccc(C(F)(F)F)c1 [Compound 732],2.89,0.62,4.7
10,1.36,7.4,,10,,≥ 10,CC(C)([C@H]1C[C@@H](NC(=O)CC2(N)CCCCC2)C1)S(=O)(=O)c1cc(F)cc(C(F)(F)F)c1 [Compound 653],,≥ 10,
8.05,1.06,7.6,3.08,2.79,1.1,2.93,CC(C)([C@H]1C[C@H](NS(=O)(=O)c2ccc(F)c(Cl)c2)C1)S(=O)(=O)c1cccc(C(F)(F)F)c1 [Compound 664],≥ 10,3.67,2.7
10,2.47,4,≥ 10,10,1,≥ 10,O=C(NC[C@H]1C[C@H](S(=O)(=O)c2cc(F)cc(C(F)(F)F)c2)C1)c1cnc(C(F)(F)F)nc1 [Compound 705],≥ 10,≥ 10,
4.17,0.86,4.8,2.99,2.59,1.2,3.27,CC(C)([C@H]1C[C@H](Nc2ccnc(C(F)(F)F)n2)C1)S(=O)(=O)c1cccc(OC(F)(F)F)c1 [Compound 647],6.55,1.08,6.1
1.88,0.2,9.4,5.37,4.33,1.2,6.56,CC(C)([C@H]1C[C@H](NC(=O)c2ccc(Cl)cn2)C1)S(=O)(=O)c1cccc(C(F)(F)F)c1 [Compound 673],≥ 10,4.57,2.2
